In patent US9249140B2, “Bicyclic heteroaromatic compounds” (MERCK PATENT GMBH, priority 2011, dated 2016) one finds IC50 data, which are given here for two compounds.

The target in test [1] is T1, FAK (Homo sapiens, UniProt Q05397).
T1 construct: 2 nM FAK, 400 nM biotinylated substrate
Kind of test: Cellular testing of FAK kinase inhibitors: autophosphorylation of FAK at tyrosine 397, Luminex-based assay in HT29 cells. Format: cell-based. The following applies: P-Y397-FAK in HT29 cells, 30 min, serum-free, read-out: IC50 (cellular), FAK inhibition.
Description: For analysis of the cellular activity of FAK, the extent of autophosphorylation of FAK at tyrosine 397 is determined with the aid of a Luminex-based assay in the 96-well format. HT29 cells are sown out with 30,000 cells per well in 100 μl of medium (90% of DMEM/10% of FCS) and incubated on the following day for 30 min with a serial dilution of the test substance (7 concentrations) under serum-free conditions. The cells are subsequently lysed using 90 μl of lysis buffer (20 mM tris/HCl pH 8.0, 150 mM NaCl, 1% of NP40, 10% of glycerol, 1% of phosphatase inhibitor II, 20 mM β-glycerol phosphate, 0.1% of protease inhibitor cocktail III, 0.01% of benzonase) per well, and the lysates are separated off from insoluble cell constituents by means of centrifugation through a 96-well filter plate (0.65 μm). The lysates are incubated at 4° C. overnight with shaking with Luminex beads to which an anti-total FAK antibody is coupled. The detection is carried out on the following day by addition of a P-Y397-FAK antibody and a species-specific PE-labelled secondary antibody. P-Y397-FAK is detected by measurement in the Luminex100 instrument by determination of 100 events per cavity in a measurement time of 60 sec. […] The values of the batches treated with test substance are calculated therefrom as percent of control, and IC50 values are determined by means of Assay Explorer.

Test [2] deals with T1, FAK. Nature of the test: FAK kinase assay (autophosphorylation), 384-well flashplate. The following applies: enzymatic; 1 μM ATP; read-out: IC50 (enzymatic), FAK inhibition. Format: biochemical. The method, then:
The focal adhesion kinase (FAK) assay is carried out either as a 384-well flashplate assay (for example for Topcount measurements) or as a 384-well image flashplate assay (for LEADseeker measurements). […] The reaction is stopped using 25 μl of 200 mM EDTA. After 30 min at 30° C., the liquid is removed, and each well is washed three times with 100 μl of 0.9% sodium chloride solution. Non-specific reaction is determined in the presence of 1 μM EMD 1076893/0(PF-562271). The radioactivity is measured using Topcount (in the case of the use of flashplates) or using LEADseeker (in the case of the use of image flashplates).

Test [3] concerns the target T2, IKKε (Homo sapiens, UniProt Q14164).
T2 construct: 1 nM IKKε, 800 nM biotinylated IκBα(19-42) peptide
T2 sequence (Q14164 1-716): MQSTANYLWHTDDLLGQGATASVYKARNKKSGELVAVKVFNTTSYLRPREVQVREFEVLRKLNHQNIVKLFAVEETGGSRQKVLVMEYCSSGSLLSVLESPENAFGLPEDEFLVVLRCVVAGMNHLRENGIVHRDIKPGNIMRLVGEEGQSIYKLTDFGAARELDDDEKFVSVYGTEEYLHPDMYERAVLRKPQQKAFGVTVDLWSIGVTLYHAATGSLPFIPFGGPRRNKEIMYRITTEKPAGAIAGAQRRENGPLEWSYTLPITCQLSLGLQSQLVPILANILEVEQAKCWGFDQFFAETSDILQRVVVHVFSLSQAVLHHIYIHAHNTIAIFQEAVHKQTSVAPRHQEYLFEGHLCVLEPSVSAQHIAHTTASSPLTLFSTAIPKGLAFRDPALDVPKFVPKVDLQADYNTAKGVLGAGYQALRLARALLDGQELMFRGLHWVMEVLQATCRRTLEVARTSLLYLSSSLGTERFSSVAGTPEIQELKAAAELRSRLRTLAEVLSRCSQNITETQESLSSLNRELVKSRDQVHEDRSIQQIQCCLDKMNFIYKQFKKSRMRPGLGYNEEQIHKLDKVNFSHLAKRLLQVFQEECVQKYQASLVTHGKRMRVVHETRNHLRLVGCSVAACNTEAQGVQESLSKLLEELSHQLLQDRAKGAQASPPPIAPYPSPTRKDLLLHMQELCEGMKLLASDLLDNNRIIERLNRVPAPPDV
Kind of test: IKKε kinase test (IKKepsilon), 384-well flashplate. The class given is biochemical. The following applies: enzymatic; 10 μM ATP; read-out: IKKe IC50 (enzymatic). The protocol:
The kinase assay is performed as 384-well flashplate assay. 1 nM IKKε, 800 nM biotinylated IκBα(19-42) peptide (biotin-C6-C6-[…] (SEQ ID NO: 2)) and 10 μM ATP (with 0.3 μCi of 33P-ATP/well) are incubated in a total volume of 50 μl (10 mM MOPS, 10 mM magnesium acetate, 0.1 mM EGTA, 1 mM dithiothreitol, 0.02% of Brij, 0.1% of BSA, 0.1% of BioStab, pH 7.5) with or without test substance at 30° C. for 120 min. The reaction is stopped using 25 μl of 200 mM EDTA solution, filtered off with suction after 30 min at room temperature, and the wells are 25 washed 3 times with 100 μl of 0.9% NaCl solution. The non-specific proportion of the kinase reaction (blank) is determined using 3 μM EMD 1126352 (BX-795). Radioactivity is measured in the Topcount. IC50 values are calculated using RS1.

Test [4] deals with T3, PDK1 (Homo sapiens, UniProt O15530).
T3 construct: the PDK1 sample His6-PDK1(Δ1-50)(3.4 nM)
T3 sequence (O15530 51-556): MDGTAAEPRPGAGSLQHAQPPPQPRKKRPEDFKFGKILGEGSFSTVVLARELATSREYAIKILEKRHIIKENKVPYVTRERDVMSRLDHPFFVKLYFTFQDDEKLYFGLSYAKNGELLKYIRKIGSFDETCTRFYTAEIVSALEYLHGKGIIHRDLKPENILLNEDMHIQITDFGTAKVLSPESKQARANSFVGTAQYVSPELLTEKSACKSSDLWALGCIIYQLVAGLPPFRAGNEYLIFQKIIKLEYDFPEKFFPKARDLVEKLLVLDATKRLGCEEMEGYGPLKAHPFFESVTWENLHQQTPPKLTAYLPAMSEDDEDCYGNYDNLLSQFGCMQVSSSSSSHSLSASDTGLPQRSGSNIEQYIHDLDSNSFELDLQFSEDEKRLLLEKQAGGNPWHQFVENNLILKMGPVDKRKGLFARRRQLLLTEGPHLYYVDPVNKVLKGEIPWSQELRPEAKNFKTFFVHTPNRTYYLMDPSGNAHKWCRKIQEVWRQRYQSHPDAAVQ
Nature of the test: Test for the inhibition of PDK1, 384-well flashplate. The following applies: enzymatic; 4 μM ATP. Format: biochemical. The method, then:
The experimental batches are carried out in a flashplate system with 384 wells/microtitration plate.
In each case, the PDK1 sample His6-PDK1(Δ1-50)(3.4 nM) (“His6” disclosed as SEQ ID NO: 4), the PDK1 substrate biotin-bA-bA-[…] (SEQ ID NO: 1) (400 nM), 4 μM ATP (with 0.2 μCi of 33P-ATP/well) and the test substance in 50 μl of conventional experimental solution per well are incubated at 30° C. for 60 min. The test substances are employed in corresponding concentrations (if desired in a dilution series). The control is carried out without test substance. The reaction is stopped using standard methods and washed. The activity of the kinase is measured via the incorporated radioactivity in top count. In order to determine the non-specific kinase reaction (blank value), the experimental batches are carried out in the presence of 100 nM staurosporine.
The radioactivity (decompositions per minute) of the blank value (no use of test substance in the presence of staurosporine) is subtracted from all other radioactivity values. The controls (kinase activity without test substance) are set equal to 100 percent and all other radioactivity values (after subtracting the blank value) are expressed set in relation thereto (for example in % of the control).

Test [5] concerns the target T4, TANK binding kinase (TBK1) (Homo sapiens, UniProt Q9UHD2).
T4 sequence (Q9UHD2 1-729): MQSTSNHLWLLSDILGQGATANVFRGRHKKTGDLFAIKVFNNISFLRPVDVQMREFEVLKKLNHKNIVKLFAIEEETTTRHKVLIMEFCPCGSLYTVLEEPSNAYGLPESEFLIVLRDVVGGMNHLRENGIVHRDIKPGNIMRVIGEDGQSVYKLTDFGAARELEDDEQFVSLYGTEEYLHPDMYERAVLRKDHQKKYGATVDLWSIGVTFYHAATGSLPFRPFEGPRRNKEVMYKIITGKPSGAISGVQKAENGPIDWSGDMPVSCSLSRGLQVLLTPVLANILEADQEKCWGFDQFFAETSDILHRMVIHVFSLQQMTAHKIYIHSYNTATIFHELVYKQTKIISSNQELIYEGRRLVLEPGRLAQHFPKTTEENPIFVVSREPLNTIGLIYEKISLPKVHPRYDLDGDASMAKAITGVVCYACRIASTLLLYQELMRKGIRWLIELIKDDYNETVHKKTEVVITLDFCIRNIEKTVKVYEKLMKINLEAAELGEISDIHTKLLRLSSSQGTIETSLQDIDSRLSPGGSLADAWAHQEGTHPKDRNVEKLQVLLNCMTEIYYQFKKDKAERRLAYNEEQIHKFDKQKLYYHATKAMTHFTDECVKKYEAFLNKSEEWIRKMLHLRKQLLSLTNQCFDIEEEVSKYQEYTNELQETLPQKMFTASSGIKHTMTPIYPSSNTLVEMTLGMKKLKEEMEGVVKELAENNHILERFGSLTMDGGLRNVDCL
Kind of test: TBK1 kinase test, 384-well flashplate. The following applies: enzymatic; 10 μM ATP. Format: biochemical. The protocol:
The kinase assay is performed as 384-well flashplate assay. 0.6 nM TANK binding kinase (TBK1), 800 nM biotinylated MELK-derived peptide (biotin-Ah-Ah-[…] (SEQ ID NO: 3)) and 10 μM ATP (with 0.25 μCi of 33P-ATP/well) are incubated in a total volume of 50 μl (10 mM MOPS, 10 mM magnesium acetate, 0.1 mM EGTA, 1 mM DTT, 0.02% of Brij35, 0.1% of BSA, pH 7.5) with or without test substance at 30° C. for 120 min. The reaction is stopped using 25 μl of 200 mM EDTA solution, filtered off with suction after 30 min at room temperature, and the wells are washed 3 times with 100 μl of 0.9% NaCl solution. The non-specific proportion of the kinase reaction (blank) is determined using 100 nM staurosporine. Radioactivity is measured in the Topcount. IC50 values are calculated using RS1.

T1 sequence (Q05397 whole entry): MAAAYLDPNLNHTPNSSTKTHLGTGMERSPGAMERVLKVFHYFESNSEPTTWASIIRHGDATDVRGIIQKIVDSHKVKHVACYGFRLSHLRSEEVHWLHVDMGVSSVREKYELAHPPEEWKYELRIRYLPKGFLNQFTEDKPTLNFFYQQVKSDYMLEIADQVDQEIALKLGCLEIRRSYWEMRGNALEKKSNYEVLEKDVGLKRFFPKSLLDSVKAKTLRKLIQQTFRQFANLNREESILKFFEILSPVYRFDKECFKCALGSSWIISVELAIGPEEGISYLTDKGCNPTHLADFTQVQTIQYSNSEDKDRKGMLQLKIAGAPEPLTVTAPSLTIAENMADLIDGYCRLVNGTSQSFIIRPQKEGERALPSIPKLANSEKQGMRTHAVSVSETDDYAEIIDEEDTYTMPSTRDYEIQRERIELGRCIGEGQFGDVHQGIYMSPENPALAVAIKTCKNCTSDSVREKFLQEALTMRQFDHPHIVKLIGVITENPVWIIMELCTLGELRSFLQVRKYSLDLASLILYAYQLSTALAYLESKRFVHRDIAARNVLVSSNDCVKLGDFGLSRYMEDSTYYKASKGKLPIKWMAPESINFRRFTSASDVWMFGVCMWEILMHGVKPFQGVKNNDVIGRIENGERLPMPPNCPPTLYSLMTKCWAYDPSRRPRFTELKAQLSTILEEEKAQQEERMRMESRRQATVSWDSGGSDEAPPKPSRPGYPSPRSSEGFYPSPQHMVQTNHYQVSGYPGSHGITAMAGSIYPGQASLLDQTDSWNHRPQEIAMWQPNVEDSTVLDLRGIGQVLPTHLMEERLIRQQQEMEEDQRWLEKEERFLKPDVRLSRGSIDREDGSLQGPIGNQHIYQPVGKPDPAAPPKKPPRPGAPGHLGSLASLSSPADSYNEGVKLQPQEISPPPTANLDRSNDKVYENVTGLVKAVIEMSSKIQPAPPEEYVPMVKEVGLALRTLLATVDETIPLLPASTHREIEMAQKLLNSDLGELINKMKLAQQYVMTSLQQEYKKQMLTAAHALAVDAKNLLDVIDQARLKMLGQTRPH

On to `CN(c1ncccc1CNc1c(C#N)cnc2[nH]cc(Cl)c12)S(C)(=O)=O` [A10, N-{3-[(3-Chloro-5-cyano-1H-pyrrolo[2,3-b]-pyridin-4-ylamino)methyl]pyridin-2-yl}-N-methylmethanesulfonamide], for which the IC50 (commonly the concentration that gives 50% inhibition) in test [1] lay within 3 to 50 µM; in test [2] it was 0.3 to 3 µM.

Consider `O=c1ccc(-c2c(C(F)(F)F)cnc3[nH]c(-c4ccc(N5CCOCC5)cc4)cc23)c[nH]1` [A97, 5-[2-(4-Morpholin-4-ylphenyl)-5-trifluoromethyl-1H-pyrrolo[2,3-b]pyridin-4-yl]-1H-pyridin-2-one], for which the IC50 in test [3], in test [4] and in test [5] was 0.3 to 3 µM throughout.
